Experimental findings from patent US5470833A, “Endothelin antagonistic peptide derivatives” (Banyu Pharmaceutical Co., Ltd., priority 1990, dated 1995) are described below.

Each structure is given as a SMILES string. Numbered stars: 1 amine (or outer) side, 2 acyl side, 3 side chain; on linkers, the order of the positions; unused ones are H or OH. Square brackets hold non-standard residues; d marks the D form. Peptide text beside a SMILES is read from it. * marks the point of attachment. d(β3hA) = C[C@@H](N)CC(=O)O; PhAc = O=C(Cc1ccccc1)*; Boc = CC(C)(C)OC(=O)*; CO = O=C([*:1])[*:2]; NHBn = c1ccc(CN*)cc1; Piv = CC(C)(C)C(=O)*; NHPh = c1ccc(N*)cc1; Dha = C=C(N)C(=O)O; NHtBu = CC(C)(C)N*; Bn = c1ccc(C*)cc1; βAla = NCCC(=O)O; NEt2 = CCN(CC)*; NHiPr = CC(C)N*

In one experiment the target is T1, endothelin receptor (membrane of smooth muscle tissue of porcine aorta) (Sus scrofa, UniProt Q29010).
T1 construct: from tissue; host or cells: porcine aorta smooth muscle, membrane fraction
T1 sequence (Q29010 21-427): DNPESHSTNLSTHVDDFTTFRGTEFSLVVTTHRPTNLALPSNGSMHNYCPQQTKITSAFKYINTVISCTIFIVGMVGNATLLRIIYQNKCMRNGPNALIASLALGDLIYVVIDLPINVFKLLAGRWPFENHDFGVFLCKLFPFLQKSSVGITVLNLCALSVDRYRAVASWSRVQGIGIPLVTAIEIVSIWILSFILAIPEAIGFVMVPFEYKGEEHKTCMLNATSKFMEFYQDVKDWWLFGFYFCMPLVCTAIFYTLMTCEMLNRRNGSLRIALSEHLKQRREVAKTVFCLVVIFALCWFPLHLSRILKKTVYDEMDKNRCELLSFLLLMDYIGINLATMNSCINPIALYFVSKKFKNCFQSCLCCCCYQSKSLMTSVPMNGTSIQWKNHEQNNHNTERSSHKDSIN
As to the kind of experiment: Endothelin binding inhibition test (125I-endothelin-1, porcine aorta smooth muscle membrane). Conditions: 1.1 μM test compound (no mark); read-out: 125I-endothelin-1 binding inhibition. On the procedure:
The smooth muscle tissue of porcine aorta was homogenized in a buffer solution of 10 mM MOPS, pH 7.4, at 4° C. by a polytron. To the homogenate, sucrose was added to a concentration of 20%, and the mixture was centrifuged at 1,000×g for 15 minutes, and the supernatant was further centrifuged at 10,000×g for 15 minutes. The supernatant thereof was further centrifuged at 90,000×g for 40 minutes. The membrane precipitate thereby obtained was suspended in a buffer solution of 5 mM HEPES/Tris, pH 7.4, at a concentration of 25 mg/ml.
Then, 16 μl of this membrane suspension was added to 340 μl of 50 mM Tris/HCl buffer, pH 7.4, containing 10 μM calcium chloride, 10 μM magnesium chloride, 0.1 mM PMSF, 1 μM pepstatin A, 2 μM leupeptin, 1 mM 1,10-phenanthroline and 0.1% bovine serum albumin. To this suspension, 4 μl of (A) endothelin-1 (for nonspecific binding; 0.2 μM as the final concentration), (B) buffer solution A (for total control binding), or (C) a test compound (1.1 μM or 10 μM as the final concentration),was added. Further, to each suspension, 40 μl of ^125 I-endothelin-1 (12000-18000 cpm) was added. These mixtures were incubated at 25° C. for 4 hours, then subjected to filtration on a glass filter GF/C and then washed with 5 mM HEPES/Tris, pH 7.4, containing 0.3% bovine serum albumin. Then, the radioactivity trapped by the glass filter was measured, and the ^125 I-endothelin-1 binding inhibition D (%) at 1.1 μM or 10 μM of the test compound was determined by the following equation. [formula] Each test was performed in triplicate.
The test compounds are indicated by Compound Nos.
Regarding `CC(C)C[C@H](NC(=O)OC(C)(C)C)C(=O)N[C@H](Cc1c[nH]c2ccccc12)C(=O)N[C@H](CC(=O)O)C(=O)Nc1ccccc1` [Compound 44] (Boc-Leu-[dW]-[dD]-NHPh), the inhibition at 1.1 µM was determined as 30%.

As for `COC(=O)[C@@H](Cc1c[nH]cn1)NC(=O)[C@@H](Cc1c[nH]c2ccccc12)NC(=O)[C@H](CC(C)C)NC(=O)N1CCCCCC1` [Compound 47], the inhibition at 1.1 µM is 75%.

On to `CC(C)C[C@H](NC(=O)N1CCCCCC1)C(=O)N[C@H](Cc1c[nH]c2ccccc12)C(=O)N[C@H](Cc1c[nH]cn1)C(=O)O` [Compound 48], for which the inhibition at 1.1 µM was found to be 82%.

On to `COC(=O)[C@@H](Cc1c[nH]c2ccccc12)NC(=O)[C@@H](Cc1c[nH]c2ccccc12)NC(=O)[C@H](CC(C)C)NC(=O)N1CCCCCC1` [Compound 49], for which the inhibition at 1.1 µM worked out at 85%.

In the case of `COC(=O)C[C@@H](C)NC(=O)[C@@H](Cc1c[nH]c2ccccc12)NC(=O)[C@H](CC(C)C)NC(=O)N1CCCCCC1` [Compound 51], the inhibition at 1.1 µM was found to be 68%.

As to `CC(C)C[C@H](NC(=O)N1CCCCCC1)C(=O)N[C@H](Cc1c[nH]c2ccccc12)C(=O)N[C@H](C)CC(=O)O` [Compound 52], the inhibition at 1.1 µM was 84%.

With `CC(C)C[C@H](NC(=O)N1CCCCCC1)C(=O)N[C@H](Cc1c[nH]c2ccccc12)C(=O)NCCS(=O)(=O)O` [Compound 53], the inhibition at 1.1 µM worked out at 86%.

For the compound `CC[C@H](C)[C@H](NC(=O)OC(C)(C)C)C(=O)N[C@H](Cc1c[nH]c2ccccc12)C(=O)NCCC(=O)O` [Compound 54] (Boc-Ile-[dW]-[βAla]-OH), the inhibition at 1.1 µM worked out at 39%.

As for `CC(C)C[C@H](NC(=O)c1cccs1)C(=O)N[C@H](Cc1c[nH]c2ccccc12)C(=O)NCCC(=O)O` [Compound 55], the inhibition at 1.1 µM was found to be 54%.

For the compound `COC(=O)C(C(=O)N[C@@H](CC(C)C)C(=O)N[C@H](Cc1c[nH]c2ccccc12)C(=O)NCCC(=O)O)=C1SC=CS1` [Compound 66], the inhibition at 1.1 µM worked out at 77%.

As to `CC(C)C[C@H](NC(=O)C=C1SC=CS1)C(=O)N[C@H](Cc1c[nH]c2ccccc12)C(=O)NCCC(=O)O` [Compound 67], the inhibition at 1.1 µM was 63%.

For `CC(C)C[C@H](NC(=O)Cc1ccccc1)C(=O)N[C@H](Cc1c[nH]c2ccccc12)C(=O)NCCC(=O)O` [Compound 70] (PhAc-Leu-[dW]-[βAla]-OH), the inhibition at 1.1 µM was found to be 32%.

Take `CC(C)C[C@H](NC(=O)OC(C)C)C(=O)N[C@H](Cc1c[nH]c2ccccc12)C(=O)NCCC(=O)O` [Compound 71]: the inhibition at 1.1 µM was determined as 29%.

`CC(C)C[C@H](NC(=O)N1C(C)(C)CCCC1(C)C)C(=O)N[C@H](Cc1c[nH]c2ccccc12)C(=O)NCCC(=O)O` [Compound 74]: the inhibition at 1.1 µM was determined as 70%.

`CC(C)C[C@H](NC(=O)N(C)c1ccccc1)C(=O)N[C@H](Cc1c[nH]c2ccccc12)C(=O)NCCC(=O)O` [Compound 76]: the inhibition at 1.1 µM came to 52%.

On to `CCN(CC)C(=O)N[C@@H](CC(C)C)C(=O)N[C@H](Cc1c[nH]c2ccccc12)C(=O)NCCC(=O)O` [Compound 77] ({NEt2-CO}-Leu-[dW]-[βAla]-OH), for which the inhibition at 1.1 µM stood at 47%.

Regarding `CC(C)C[C@H](NC(=O)NC(C)(C)C)C(=O)N[C@H](Cc1c[nH]c2ccccc12)C(=O)N[C@H](C)CC(=O)O` [Compound 80] ({NHtBu-CO}-Leu-[dW]-[d(β3hA)]-OH), the inhibition at 1.1 µM is 73%.

Turning to `CC(C)C[C@H](NC(=O)NC(C)(C)C)C(=O)N[C@H](Cc1c[nH]c2ccccc12)C(=O)N[C@H](Cc1c[nH]c2ccccc12)C(=O)O` [Compound 81] ({NHtBu-CO}-Leu-[dW]-[dW]-OH), the inhibition at 1.1 µM is 84%.

On to `CC(C)C[C@H](NC(=O)NC(C)(C)C)C(=O)N[C@H](Cc1c[nH]c2ccccc12)C(=O)N[C@H](Cc1c[nH]cn1)C(=O)O` [Compound 82] ({NHtBu-CO}-Leu-[dW]-[dH]-OH), for which the inhibition at 1.1 µM came to 76%.

For `CC(C)C[C@H](NC(=O)Nc1ccccc1)C(=O)N[C@H](Cc1c[nH]c2ccccc12)C(=O)NCCC(=O)O` [Compound 84] ({NHPh-CO}-Leu-[dW]-[βAla]-OH), the inhibition at 1.1 µM is 70%.

On to `CC(C)C[C@H](NC(=O)NC(C)(C)C)C(=O)N[C@H](Cc1c[nH]c2ccccc12)C(=O)NCCC(=O)O` [Compound 85] ({NHtBu-CO}-Leu-[dW]-[βAla]-OH), for which the inhibition at 1.1 µM was 77%.

For the compound `CC(C)C[C@H](NC(=O)Nc1ccccc1)C(=O)N[C@H](Cc1c[nH]c2ccccc12)C(=O)NCC(=O)O` [Compound 90] ({NHPh-CO}-Leu-[dW]-Gly-OH), the inhibition at 1.1 µM came to 46%.

Turning to `CCOC(=O)CCNC(=O)[C@@H](Cc1c[nH]c2ccccc12)NC(=O)[C@H](CC(C)C)NC(=O)N1CCCCCC1` [Compound 92], the inhibition at 1.1 µM came out at 40%.

On to `CC(C)C[C@H](NC(=O)NC12CC3CC(CC(C3)C1)C2)C(=O)N[C@H](Cc1c[nH]c2ccccc12)C(=O)NCCC(=O)O` [Compound 113], for which the inhibition at 1.1 µM came to 69%.

With `CC(C)C[C@H](NC(=O)NCc1ccccc1)C(=O)N[C@H](Cc1c[nH]c2ccccc12)C(=O)NCCC(=O)O` [Compound 115] ({NHBn-CO}-Leu-[dW]-[βAla]-OH), the inhibition at 1.1 µM amounted to 33%.

Consider `CC(C)C[C@H](NC(=O)N(C(C)C)C(C)C)C(=O)N[C@H](Cc1c[nH]c2ccccc12)C(=O)NCCC(=O)O` [Compound 119], for which the inhibition at 1.1 µM is 81%.

Regarding `CC(C)C[C@H](NC(=O)N1CCCCCC1)C(=O)N[C@H](Cc1cn(C=O)c2ccccc12)C(=O)N[C@H](C)CC(=O)O` [Compound 132], the inhibition at 1.1 µM was determined as 85%.

Consider `C=C(NC(=O)[C@@H](Cc1c[nH]c2ccccc12)NC(=O)[C@H](CC(C)C)NC(=O)OC(C)(C)C)C(=O)O` [Compound 133] (Boc-Leu-[dW]-[Dha]-OH), for which the inhibition at 1.1 µM was found to be 41%.

For the compound `CNC(=O)CCNC(=O)[C@@H](Cc1c[nH]c2ccccc12)NC(=O)[C@H](CC(C)C)NC(=O)N1CCCCCC1` [Compound 134], the inhibition at 1.1 µM is 32%.

As to `CC(C)C[C@H](NC(=O)N1CCCCCC1)C(=O)N[C@H](Cc1c[nH]c2ccccc12)C(=O)NCCC(N)=O` [Compound 135], the inhibition at 1.1 µM came to 39%.

With `CC(C)C[C@H](NC(=O)N1CCCCCC1)C(=O)N[C@H](Cc1c[nH]c2ccccc12)C(=O)NCCC(=O)N(C)C` [Compound 136], the inhibition at 1.1 µM was 32%.

Turning to `CC(C)C[C@H](NC(=O)OC(C)(C)C)C(=O)N[C@H](Cc1c[nH]c2ccccc12)C(=O)N[C@H](Cc1ccc(OCc2ccccc2)cc1)C(=O)O` [Compound 137] (Boc-Leu-[dW]-[dY](Bn)-OH), the inhibition at 1.1 µM was determined as 46%.

For `CC(C)C[C@H](NC(=O)OC(C)(C)C)C(=O)N[C@H](Cc1c[nH]c2ccccc12)C(=O)N[C@H](Cc1ccc(O)cc1)C(=O)O` [Compound 138] (Boc-Leu-[dW]-[dY]-OH), the inhibition at 1.1 µM came out at 72%.

In the case of `CC(C)C[C@H](NC(=O)N1CCCCCC1)C(=O)N[C@H](CC1C(=O)Nc2ccccc21)C(=O)N[C@H](C)CC(=O)O` (some centres unmarked) [Compound 139], the inhibition at 1.1 µM was found to be 66%.

The experiment is the same for the next values; noted with them: 10 μM test compound (marked *); read-out: 125I-endothelin-1 binding inhibition.
Regarding `CC(C)C[C@H](NC(=O)OC(C)(C)C)C(=O)N[C@H](Cc1c[nH]c2ccccc12)C(=O)N[C@@H](CC(=O)O)C(=O)Nc1ccccc1` [Compound 45] (Boc-Leu-[dW]-Asp-NHPh), the inhibition at 10 µM was found to be 39%.

As to `CC(C)C[C@H](NC(=O)CC(C)(C)C)C(=O)N[C@H](Cc1c[nH]c2ccccc12)C(=O)NCCC(=O)O` [Compound 68], the inhibition at 10 µM was found to be 58%.

For the compound `CC(C)C[C@H](NC(=O)C(C)(C)C)C(=O)N[C@H](Cc1c[nH]c2ccccc12)C(=O)NCCC(=O)O` [Compound 69] (Piv-Leu-[dW]-[βAla]-OH), the inhibition at 10 µM turned out to be 71%.

In the case of `CC(C)C[C@H](NC(=O)N(C)C)C(=O)N[C@H](Cc1c[nH]c2ccccc12)C(=O)NCCC(=O)O` [Compound 73] ({NMe2-CO}-Leu-[dW]-[βAla]-OH), the inhibition at 10 µM came to 61%.

With `CC(C)C[C@H](NC(=O)NC(C)C)C(=O)N[C@H](Cc1c[nH]c2ccccc12)C(=O)NCC(=O)O` [Compound 89] ({NHiPr-CO}-Leu-[dW]-Gly-OH), the inhibition at 10 µM came to 55%.

As to `CC(C)C[C@H](NC(=S)Nc1ccccc1)C(=O)N[C@H](Cc1c[nH]c2ccccc12)C(=O)NCC(=O)O` [Compound 91], the inhibition at 10 µM turned out to be 51%.

On to `COC(CNC(=O)[C@@H](Cc1c[nH]c2ccccc12)NC(=O)[C@H](CC(C)C)NC(=O)OC(C)(C)C)C(=O)O` (some centres unmarked) [Compound 146], for which the inhibition at 10 µM is 70%.

For orientation: inhibition means the percentage by which the read-out fell short of the control.
